Measured values as given in ChEMBL document CHEMBL5104093, “A comprehensive review on β-lapachone: Mechanisms, structural modifications, and therapeutic potentials” (Eur J Med Chem, 2021).
Values after ≈ are worked out from the molar mass of the structure shown.

Assays:
[1] = tested on: Staphylococcus epidermidis; assay: Antibacterial activity against Methicillin-resistant Staphylococcus epidermidis clinical isolates assessed as bacterial growth inhibition incubated for 24 hrs by Mueller-Hinton broth based assay; type: functional
[2] = tested on: Staphylococcus aureus; assay: Antibacterial activity against Methicillin-resistant Staphylococcus aureus ATCC 29213 assessed as bacterial growth inhibition incubated for 24 hrs by Mueller-Hinton broth based assay; type: functional
[3] = Cytotoxicity against African green monkey BSC40 cells assessed as viable cells incubated for 24 hrs by Neutral red dye based spectrophotometer analysis; type: toxicity, cell-based; details: chlorocebus aethiops, bsc40, 24 h
[4] = tested on: Staphylococcus haemolyticus; assay: Antibacterial activity against Methicillin-resistant Staphylococcus haemolyticus clinical isolates assessed as bacterial growth inhibition incubated for 24 hrs by Mueller-Hinton broth based assay; type: functional
[5] = tested on: Staphylococcus aureus; assay: Antibacterial activity against Methicillin-resistant Staphylococcus aureus ATCC 33591 assessed as bacterial growth inhibition incubated for 24 hrs by Mueller-Hinton broth based assay; type: functional
[6] = tested on: SNB-19; assay: Cytotoxicity against human SNB-19 cells assessed as reduction in cell viability incubated for 72 hrs by MTT assay; type: functional, cell-based; details: SNB-19, 72 h
[7] = tested on: HCT-116; assay: Cytotoxicity against human HCT-116 cells assessed as reduction in cell viability incubated for 72 hrs by MTT assay; type: functional, cell-based; details: HCT-116, 72 h
[8] = tested on: MCF7; assay: Cytotoxicity against human MCF7 cells assessed as reduction in cell viability incubated for 72 hrs by MTT assay; type: functional, cell-based; details: MCF7, 72 h
[9] = tested on: B16-F10; assay: Cytotoxicity against mouse B16-F10 cells assessed as reduction in cell viability incubated for 72 hrs by MTT assay; type: functional, cell-based; details: B16-F10, 72 h
[10] = tested on: PC-3; assay: Cytotoxicity against human PC-3 cells assessed as reduction in cell viability incubated for 72 hrs by MTT assay; type: functional, cell-based; details: PC-3, 72 h
[11] = Cytotoxicity against mouse L929 cells assessed as reduction in cell viability incubated for 72 hrs by MTT assay; type: toxicity, cell-based
[12] = tested on: Mycobacterium tuberculosis; assay: Antimycobacterial activity against Mycobacterium tuberculosis H37Rv ATCC 27294 assessed as bacterial growth inhibition incubated for 5 days by Alamar blue reagent based assay; type: functional; details: ATCC 27294, 120 h, time 5 day
[13] = tested on: Enterococcus faecalis; assay: Antibacterial activity against Enterococcus faecalis clinical isolates assessed as bacterial growth inhibition by broth macrodilution method; type: functional
[14] = tested on: NCI-H460; assay: Cytotoxicity against human NCI-H460 cells assessed as reduction in cell viability incubated for 72 hrs by MTT assay; type: functional, cell-based; details: NCI-H460, 72 h
[15] = tested on: SW-620; assay: Cytotoxicity against human SW-620 cells assessed as reduction in cell viability incubated for 72 hrs by MTT assay; type: functional, cell-based; details: SW-620, 72 h
[16] = tested on: CCRF-CEM; assay: Cytotoxicity against human CEM cells assessed as reduction in cell viability incubated for 72 hrs by MTT assay; type: functional, cell-based
[17] = tested on: MDA-MB-231; assay: Cytotoxicity against human MDA-MB-231 cells assessed as reduction in cell viability incubated for 72 hrs by MTT assay; type: functional, cell-based; details: MDA-MB-231, 72 h
[18] = tested on: HCT-15; assay: Cytotoxicity against human HCT-15 cells assessed as reduction in cell viability incubated for 72 hrs by MTT assay; type: functional, cell-based; details: HCT-15, 72 h
[19] = tested on: HCT-8; assay: Cytotoxicity against human HCT-8 cells assessed as reduction in cell viability incubated for 72 hrs by MTT assay; type: functional, cell-based; details: HCT-8, 72 h
[20] = tested on: COLO 205; assay: Cytotoxicity against human COLO 205 cells assessed as reduction in cell viability incubated for 72 hrs by MTT assay; type: functional, cell-based; details: COLO 205, 72 h
[21] = tested on: OVCAR-8; assay: Cytotoxicity against human OVCAR-8 cells assessed as reduction in cell viability incubated for 72 hrs by MTT assay; type: functional, cell-based; details: OVCAR-8, 72 h
[22] = tested on: SF-295; assay: Cytotoxicity against human SF-295 cells assessed as reduction in cell viability incubated for 72 hrs by MTT assay; type: functional, cell-based; details: SF-295, 72 h
[23] = tested on: Hs-578T; assay: Cytotoxicity against human Hs-578T cells assessed as reduction in cell viability incubated for 72 hrs by MTT assay; type: functional, cell-based
[24] = tested on: MDA-MB-435; assay: Cytotoxicity against human MDA-MB-435 cells assessed as reduction in cell viability incubated for 72 hrs by MTT assay; type: functional, cell-based; details: MDA-MB-435, 72 h
[25] = tested on: UACC-62; assay: Cytotoxicity against human UACC-62 cells assessed as reduction in cell viability incubated for 72 hrs by MTT assay; type: functional, cell-based; details: UACC-62, 72 h
[26] = tested on: MX1; assay: Cytotoxicity against human MX1 cells assessed as reduction in cell viability incubated for 72 hrs by MTT assay; type: functional, cell-based; details: MX1, 72 h
[27] = tested on: MOLT-4; assay: Cytotoxicity against human MOLT-4 cells assessed as reduction in cell viability incubated for 72 hrs by MTT assay; type: functional, cell-based; details: MOLT-4, 72 h
[28] = tested on: NCI-H358; assay: Cytotoxicity against human NCI-H358 cells assessed as reduction in cell viability incubated for 72 hrs by MTT assay; type: functional, cell-based; details: NCI-H358, 72 h
[29] = tested on: DU-145; assay: Cytotoxicity against human DU-145 cells assessed as reduction in cell viability incubated for 72 hrs by MTT assay; type: functional, cell-based; details: DU-145, 72 h
[30] = tested on: HL-60; assay: Cytotoxicity against human HL-60 cells assessed as reduction in cell viability incubated for 72 hrs by alamar blue assay; type: functional, cell-based; details: HL-60, 72 h
[31] = tested on: K562; assay: Cytotoxicity against human K562 cells assessed as reduction in cell viability incubated for 72 hrs by MTT assay; type: functional, cell-based; details: K562, 72 h
[32] = tested on: Staphylococcus aureus; assay: Antibacterial activity against Staphylococcus aureus 2065 MA assessed as diameter of bacterial growth inhibition by Mueller-Hinton broth based assay; type: functional
[33] = Selectivity index, ratio of IC50 for human PBMC cells to IC50 for human K562 cells; type: toxicity; details: PBMC cells versus K562 cells, read-out: Ratio IC50
[34] = Selectivity index, ratio of IC50 for human PBMC cells to IC50 for human HCT-116 cells; type: toxicity; details: PBMC cells versus HCT-116 cells, read-out: Ratio IC50
[35] = tested on: Trypanosoma cruzi; assay: Antitrypanosomal activity against bloodstream form of Trypanosoma cruzi Y trypomastigotes infected in Swiss Webster mouse assessed as reduction in viable parasite in blood incubated for 24 hrs by Neubauer counting chamber based light microscopic analysis; type: functional, organism-based
[36] = tested on: Plasmodium berghei; assay: Antiplasmodial activity against Plasmodium berghei infected in Swiss mouse assessed as reduction in parasite growth at 200 mg/kg, sc administered for 7 days; type: functional; details: 168 h, time 7 day

Question: Which results are given for CC1(C)OC2=C(C(=O)C(=O)c3ccccc32)C1O (centres undefined)?
Answer: MBC [1]: > 512 µg/mL; MIC [1]: 4 µg/mL (≈ 16.4 µM); MBC [2]: > 512 µg/mL; MIC [2]: 4 µg/mL (≈ 16.4 µM); MTC [3]: 2 µg/mL; MBC [4]: > 512 µg/mL; MIC [4]: 4 µg/mL (≈ 16.4 µM); MBC [5]: > 512 µg/mL; MIC [5]: 4 µg/mL (≈ 16.4 µM)

Question: For CC1(C)OC2=C(C(=O)C(=O)c3ccccc32)C1n1cc(C[Se]c2ccccc2)nn1 (centres undefined), which IC50 [6] is on record?
Answer: Its IC50 is 1060 nM.

Question: And the IC50 [7]?
Answer: Its IC50 is 1060 nM.

Question: And the IC50 [8]?
Answer: Its IC50 is 1060 nM.

Question: What about the IC50 [9] of the same molecule?
Answer: Its IC50 is 1060 nM.

Question: And the IC50 [10]?
Answer: The IC50 was 1060 nM.

Question: And the IC50 at 72 h [11]?
Answer: The IC50 at 72 h was 1060 nM.

Question: With Cc1ccc(C2CCC3=C(O2)c2ccccc2C(=O)C3=O)cc1 (centres undefined) as the molecule, how does the MIC [12] read?
Answer: The MIC was 1.25 µg/mL (≈ 4.11 µM).

Question: With O=C1C(=O)c2ccccc2C2=C1CC(C[Se]c1cccs1)O2 (centres undefined) as the molecule, how does the IC50 [6] read?
Answer: The IC50 was 1060 nM.

Question: And the IC50 [7]?
Answer: The IC50 was 1060 nM.

Question: And the IC50 [8]?
Answer: The IC50 was 1060 nM.

Question: And the IC50 [9]?
Answer: The IC50 was 1060 nM.

Question: And the IC50 [10]?
Answer: Its IC50 is 1060 nM.

Question: And the IC50 at 72 h [11]?
Answer: Its IC50 at 72 h is 1060 nM.

Question: For O=C(N[C@H](CO)[C@H](O)c1ccc([N+](=O)[O-])cc1)C(Cl)Cl [CHLORAMPHENICOL], which MIC [13] is on record?
Answer: Its MIC is 12 µg/mL (≈ 37.1 µM).

Question: For CC1(C)OC2=C(C(=O)C(=O)c3ccccc32)[C@H](n2cc(C[Se]c3ccc(F)cc3)nn2)[C@H]1Br, which IC50 [14] is on record?
Answer: The IC50 was 1320 nM.

Question: What about the IC50 [10] of the same molecule?
Answer: Its IC50 is 1060 nM.

Question: Which IC50 [15] does the source give for CC1(C)OC2=C(C(=O)C(=O)c3ccccc32)C1n1cc(-c2ccc(Nc3ccccn3)c3nsnc23)nn1 (centres undefined) here?
Answer: The IC50 was 480 nM.

Question: What about the IC50 [16] of the same molecule?
Answer: Its IC50 is 480 nM.

Question: What about the IC50 [17] of the same molecule?
Answer: The IC50 was 480 nM.

Question: What about the IC50 [18] of the same molecule?
Answer: The IC50 was 480 nM.

Question: And the IC50 [19]?
Answer: Its IC50 is 480 nM.

Question: And the IC50 [20]?
Answer: The IC50 was 480 nM.

Question: What about the IC50 [21] of the same molecule?
Answer: Its IC50 is 480 nM.

Question: What about the IC50 [22] of the same molecule?
Answer: Its IC50 is 480 nM.

Question: And the IC50 [23]?
Answer: Its IC50 is 480 nM.

Question: And the IC50 [8]?
Answer: The IC50 was 480 nM.

Question: And the IC50 [24]?
Answer: The IC50 was 480 nM.

Question: What about the IC50 [25] of the same molecule?
Answer: The IC50 was 480 nM.

Question: And the IC50 [26]?
Answer: Its IC50 is 480 nM.

Question: What about the IC50 [27] of the same molecule?
Answer: Its IC50 is 480 nM.

Question: And the IC50 [28]?
Answer: Its IC50 is 480 nM.

Question: What about the IC50 [10] of the same molecule?
Answer: Its IC50 is 480 nM.

Question: And the IC50 [29]?
Answer: Its IC50 is 480 nM.

Question: And the IC50 [30]?
Answer: The IC50 was 480 nM.

Question: What about the IC50 [31] of the same molecule?
Answer: Its IC50 is 480 nM.

Question: Which IC50 [22] does the source give for CC1(C)OC2=C(C(=O)C(=O)c3ccccc32)C1Sc1ccccc1 (centres undefined) here?
Answer: The IC50 was 900 nM.

Question: What about the zone diameter [32] of the same molecule?
Answer: The zone diameter was 11 mm.

Question: What about the IC50 [7] of the same molecule?
Answer: The IC50 was 900 nM.

Question: And the selectivity ratio [33]?
Answer: Its selectivity ratio is 2.11.

Question: What about the IC50 [10] of the same molecule?
Answer: The IC50 was 900 nM.

Question: What about the selectivity ratio [34] of the same molecule?
Answer: The selectivity ratio was 2.96.

Question: And the IC50 [31]?
Answer: The IC50 was 900 nM.

Question: For Cc1ccc(C2CC(c3ccccc3)C3=C(O2)c2ccccc2C(=O)C3=O)cc1 (centres undefined), which MIC [12] is on record?
Answer: Its MIC is 3.12 µg/mL (≈ 8.2 µM).

Question: With CC1(C)OC2=C(CC1[Se]c1ccc(F)cc1)C(=O)C(=O)c1ccccc12 (centres undefined) as the molecule, how does the IC50 [35] read?
Answer: The IC50 was 38300 nM.

Question: What about the IC50 [6] of the same molecule?
Answer: Its IC50 is 950 nM.

Question: What about the IC50 [7] of the same molecule?
Answer: The IC50 was 950 nM.

Question: And the IC50 [8]?
Answer: The IC50 was 950 nM.

Question: What about the IC50 [9] of the same molecule?
Answer: The IC50 was 950 nM.

Question: And the IC50 [10]?
Answer: The IC50 was 950 nM.

Question: With CC1(C)Oc2c(c3nc4ccccc4nc3c3ccccc23)CC1S(=O)(=O)O (centres undefined) as the molecule, how does the inhibition in vivo at 200 mg/kg [36] read?
Answer: The inhibition in vivo at 200 mg/kg was 98%.
